Measurements reported in US20250127799A1, “DRUG CONJUGATES FOR BONE MARROW PROTECTION” (priority 2023, published 2025).
Peptide text beside a SMILES is read from it. * marks the point of attachment. X1 = O=C(CCCCCN1C(=O)CC(*)C1=O)NCCCC(O)(P(=O)(O)O)P(=O)(O)O; X2 = O=P(O)(O)SCCNCCCN*

Test system: CD2F1 male mice
Assay: Pathological evaluation of irradiated mice injected with a single dose
Assay type: in vivo
Set-up: key to Pathological change grade: Spleen, Depletion, white pulp / Pathological change grade: Lung, Infiltrate, mixed cells / Pathological change grade: Lung, Fibrosis / Pathological change grade: Heart, Infiltrate, mixed cells / Pathological change grade: Heart, Mineralization / Pathological change grade: Duodenum / Pathological change grade: Jejunum / Pathological change grade: Ileum / Pathological change grade: Colon, Infiltrate, mixed cells / Pathological change grade: Kidney / Pathological change grade: Urinary bladder / Pathological change grade: Bone Marrow, Atrophy / Pathological change grade: Bone Marrow, Hemorrhage / Pathological change grade: Liver: 0=no change; 1=a minimal change, barely perceptible; 2=a mild change; 3 =a moderate change, affecting up to 50% of the tissue; 4=marked change, affecting up to 90% of the tissue; 5=severe or maximum change
Procedure: CD2F1 male mice (N=16) were subcutaneously (sc) injected with a single dose of one conjugate drug. For one protective drug conjugate (Conjugate 2), the tested doses were 250, 500, 600, and 700 mg/kg, and the irradiation was conducted at 24 h post-drug administration. The structure of Conjugate 2 included amifostine as the protective drug, alendronate as the bone-targeting ligand, and a protease-cleavable peptide having the sequence of CPLGLYAL (SEQ ID NO: 29) with acetylation at the N-terminus (e.g., AcCPLGLYAL; SEQ ID NO: 76). On day 30, surviving mice were humanely sacrificed and necropsied, eleven tissues of interest (liver, spleen, lung, heart, duodenum, jejunum, ileum, colon, kidney, urinary bladder, and sternum/bone marrow) were collected, preserved in fixative, and processed to glass slides. The completed preparations were stained with hematoxylin and eosin and examined microscopically. Pathological changes in the tissues were graded using a semi-quantitation scale of 0-5, where 0=no change, 1=a minimal change, barely perceptible; 2=a mild change; 3 =a moderate change, affecting up to 50% of the tissue; 4=marked change, affecting up to 90% of the tissue; and 5=severe or maximum change.

[1] = 250 mg/kg sc, 24 h before 9.2 Gy, day 30, N = 11
[2] = 500 mg/kg sc, 24 h before 9.2 Gy, day 30, N = 12
[3] = 600 mg/kg sc, 24 h before 9.2 Gy, day 30, N = 15
[4] = 700 mg/kg sc, 24 h before 9.2 Gy, day 30, N = 16

Compound: CC(=O)N[C@@H](CSC1CC(=O)N(CCCCCC(=O)NCCCC(O)(P(=O)(O)O)P(=O)(O)O)C1=O)C(=O)N1CCC[C@H]1C(=O)N[C@@H](CC(C)C)C(=O)NCC(=O)N[C@@H](CC(C)C)C(=O)N[C@@H](Cc1ccc(O)cc1)C(=O)N[C@@H](C)C(=O)N[C@@H](CC(C)C)C(=O)NCCCNCCSP(=O)(O)O (some centres unmarked) [Conjugate 2] (Ac-C(X1)PLGLYAL-X2)
- Pathological change grade: Bone Marrow, Atrophy [1]: 2-3
- Pathological change grade: Bone Marrow, Hemorrhage [1]: 0-1
- Pathological change grade: Colon, Infiltrate, mixed cells [1]: 1
- Pathological change grade: Duodenum [1]: 0
- Pathological change grade: Heart, Infiltrate, mixed cells [1]: 0
- Pathological change grade: Heart, Mineralization [1]: 0
- Pathological change grade: Ileum [1]: 0
- Pathological change grade: Jejunum [1]: 0
- Pathological change grade: Kidney [1]: 0
- Pathological change grade: Liver [1]: 0
- Pathological change grade: Lung, Fibrosis [1]: 0
- Pathological change grade: Lung, Infiltrate, mixed cells [1]: 0
- Pathological change grade: Spleen, Depletion, white pulp [1]: 2
- Pathological change grade: Urinary bladder [1]: 0
- Pathological change grade: Bone Marrow, Atrophy [2]: 2-3
- Pathological change grade: Bone Marrow, Hemorrhage [2]: 0-1
- Pathological change grade: Colon, Infiltrate, mixed cells [2]: 1
- Pathological change grade: Duodenum [2]: 0
- Pathological change grade: Heart, Infiltrate, mixed cells [2]: 0
- Pathological change grade: Heart, Mineralization [2]: 0
- Pathological change grade: Ileum [2]: 0
- Pathological change grade: Jejunum [2]: 0
- Pathological change grade: Kidney [2]: 0
- Pathological change grade: Liver [2]: 0
- Pathological change grade: Lung, Fibrosis [2]: 0
- Pathological change grade: Lung, Infiltrate, mixed cells [2]: 0
- Pathological change grade: Spleen, Depletion, white pulp [2]: 1-2
- Pathological change grade: Urinary bladder [2]: 0
- Pathological change grade: Bone Marrow, Atrophy [3]: 2-3
- Pathological change grade: Bone Marrow, Hemorrhage [3]: 0-1
- Pathological change grade: Colon, Infiltrate, mixed cells [3]: 0-1
- Pathological change grade: Duodenum [3]: 0
- Pathological change grade: Heart, Infiltrate, mixed cells [3]: 0
- Pathological change grade: Heart, Mineralization [3]: 0
- Pathological change grade: Ileum [3]: 0
- Pathological change grade: Jejunum [3]: 0
- Pathological change grade: Kidney [3]: 0
- Pathological change grade: Liver [3]: 0
- Pathological change grade: Lung, Fibrosis [3]: 0
- Pathological change grade: Lung, Infiltrate, mixed cells [3]: 0
- Pathological change grade: Spleen, Depletion, white pulp [3]: 1-2
- Pathological change grade: Urinary bladder [3]: 0
- sternal bone marrow histology compared to Vehicle Group (700 mg/kg 24 h before 9.2 Gy, day 30 (FIG. 11B)): much denser marrow
- white pulp of the spleen, histology (700 mg/kg 24 h before 9.2 Gy, day 30 (FIG. 11D)): essentially normal
- Pathological change grade: Bone Marrow, Atrophy [4]: 2
- Pathological change grade: Bone Marrow, Hemorrhage [4]: 0
- Pathological change grade: Colon, Infiltrate, mixed cells [4]: 0-1
- Pathological change grade: Duodenum [4]: 0
- Pathological change grade: Heart, Infiltrate, mixed cells [4]: 0
- Pathological change grade: Heart, Mineralization [4]: 0
- Pathological change grade: Ileum [4]: 0
- Pathological change grade: Jejunum [4]: 0
- Pathological change grade: Kidney [4]: 0
- Pathological change grade: Liver [4]: 0
- Pathological change grade: Lung, Fibrosis [4]: 0
- Pathological change grade: Lung, Infiltrate, mixed cells [4]: 0
- Pathological change grade: Spleen, Depletion, white pulp [4]: 1-2
- Pathological change grade: Urinary bladder [4]: 0
- protective effects on tissue pathology, especially bone marrow (250, 500, 600, 700 mg/kg, 24 h before 9.2 Gy): significant dose-depending protective effects
